Data taken from patent US20140323307A1, “MANAGEMENT METHOD AND MANAGEMENT SYSTEM FOR BIOMASS AT PLANT HARVEST” (Japan Science and Technology Agency, priority 2011, published 2014).

Test system: Arabidopsis thaliana
Conditions: linolenic acid-deficient, linolenic acid-excess and wild-type strains; 2 mM GSH or 1 mM GSSG aqueous solution, 25 mL per three individuals, once a week for 5 weeks; FIG. 9
Procedure: Each strain of Arabidopsis thaliana tested here was grown in the following manner: seeds of three individuals of each strain of Arabidopsis thaliana were sown in a pot, and grown from when the seeds were sown to when the individuals bore seeds (grown for about 2.5 to 3 months) under the controlled condition where light intensity was approximately 100 μE·m^−2·S^−1, the light and dark cycle was set to 16 hours and 8 hours, and the temperature was 22° C. […] Above-ground parts of the obtained Arabidopsis thaliana were harvested, and dried for five or more days in a dry house having a humidity of 5% and a temperature of 20° C. After they were thoroughly dried, the total biomass of above-ground parts at harvest (dry weight of the entire above-ground parts) and seed yield (dry weight of harvested seeds) for each pot were measured. As for the linolenic acid-deficient strain (triple mutant), only the total biomass of above-ground parts at harvest was measured.

`N[C@@H](CCC(=O)N[C@@H](CS)C(=O)NCC(=O)O)C(=O)O` [glutathione] was tested, and the “biomass at harvest (total biomass of above-ground parts, dry weight; seed yield) compared to the controls” value was “significantly increased in biomass”.
